Experimental data: patent US12391697B2, “Condensed bi-heterocycles as inhibiting agents for Bruton's tyrosine kinase” (BIOGEN MA INC., priority 2019, dated 2025)
Where a name gives a salt, the structure may show the parent alone. Read-outs that look alike come from different tables or passages of the source.

How the values were obtained:
[1] = biological target: BTK (Homo sapiens (Human), UniProt Q06187); test: In Vitro BTK Kinase Assay: Btk-PolyGAT-LS Assay; assay type: biochemical; conditions: active BTK enzyme 0.25 nM, ATP 10 μM, polyGAT 100 nM, 30 minutes
In short: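 Recombinant BTK (0.25 nM) phosphorylating 100 nM polyGAT at 10 μM ATP in Tris-HCl pH 7.5 buffer with MgCl2, DTT, Triton X-100 and casein, 30 min, then EDTA stop.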

[2] = system: CD69 expression on CD19+ B cells in whole blood; test: In Vitro Whole Blood CD69 Assay; assay type: cell-based, Human; conditions: Homo sapiens, B-cell
Procedure: In Vitro Whole Blood CD69 Assay
Human heparinized venous blood from health donors was aliquoted into 96-well plate and “spiked” with serial dilutions of formula I compounds in DMSO or with DMSO without drug. The final concentration of DMSO in all wells was 0.1%. The plate was incubated at 37° C. for 30 min. Drug-containing samples were stimulated with 0.1 μg/mL mouse anti-human IgD-dextran (1A62) or 20 μg/mL polyclonal rabbit F(ab′)2 anti-human IgD. Phosphate-buffered saline (PBS) was added to the negative control unstimulated sample and the plates were incubated overnight (18 to 22 hours) at 37° C. Cells were stained with fluorochrome-conjugated anti-CD19 and anti-CD69 antibodies. Lyse/fix solution was used to remove red blood cells by hypotonic lysis and to fix the remaining cells, which were then analyzed by flow cytometry. CD19+ B cells were gated and analyzed for CD69 expression. The percentage of B cells expressing CD69 was plotted versus the log 10 of the concentration of the drug and the best-fit curves (variable Hill slope) were generated to obtain the IC50 value.

[3] = human heparinized whole blood, anti-human IgD stimulation, percentage of CD19+ B cells expressing CD69, read-out: IC50

Chain of BTK (Q06187 whole entry): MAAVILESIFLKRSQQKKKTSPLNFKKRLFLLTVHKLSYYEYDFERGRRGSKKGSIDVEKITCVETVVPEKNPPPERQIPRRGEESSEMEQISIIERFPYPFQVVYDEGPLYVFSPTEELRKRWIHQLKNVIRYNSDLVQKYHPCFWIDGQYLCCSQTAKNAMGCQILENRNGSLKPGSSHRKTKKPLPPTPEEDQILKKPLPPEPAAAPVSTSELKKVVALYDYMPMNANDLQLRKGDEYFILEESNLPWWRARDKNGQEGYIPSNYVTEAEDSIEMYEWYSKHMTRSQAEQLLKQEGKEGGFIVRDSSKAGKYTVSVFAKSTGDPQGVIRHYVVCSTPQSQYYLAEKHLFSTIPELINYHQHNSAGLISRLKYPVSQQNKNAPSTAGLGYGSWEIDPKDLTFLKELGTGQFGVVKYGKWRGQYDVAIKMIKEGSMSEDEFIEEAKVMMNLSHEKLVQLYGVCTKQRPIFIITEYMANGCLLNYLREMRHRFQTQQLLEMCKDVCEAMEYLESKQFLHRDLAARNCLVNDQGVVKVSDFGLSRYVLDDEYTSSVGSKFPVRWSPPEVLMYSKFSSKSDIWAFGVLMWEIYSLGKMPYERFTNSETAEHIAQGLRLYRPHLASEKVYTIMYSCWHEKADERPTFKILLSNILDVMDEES

Row | Compound | IC50 [1] | IC50 [2, 3] | IC50 [2]
1 | Cc1cc(-c2ccnc3cc(-c4cnn(C)c4)nn23)ccc1CNC(=O)c1noc(C(C)(C)C)n1 [Example 16, 5-(tert-butyl)-N-(2-methyl-4-(2-(1-methyl-1H-pyrazol-4-yl)pyrazolo[1,5-a]pyrimidin-7-yl)benzyl)-1,2,4-oxadiazole-3-carboxamide trifluoroacetate] | ≤ 1 nM | 100 to 1000 nM | –
2 | COC1CN(c2cc3c(-c4ccc(CNC(=O)c5noc(C(C)(C)C)n5)c(C)c4)ncnn3c2)C1 [Example 8, 5-(tert-butyl)-N-(4-(6-(3-methoxyazetidin-1-yl)pyrrolo[2,1-f][1,2,4]triazin-4-yl)-2-methylbenzyl)-1,2,4-oxadiazole-3-carboxamide] | ≤ 1 nM | 100 to 1000 nM | –
3 | COc1cc(-c2ncnn3cc(-c4cnn(C)c4)cc23)ccc1CNC(=O)c1noc(C(C)(C)C)n1 [Example 35, 5-(tert-butyl)-N-(2-methoxy-4-(6-(1-methyl-1H-pyrazol-4-yl)pyrrolo[2,1-f][1,2,4]triazin-4-yl)benzyl)-1,2,4-oxadiazole-3-carboxamide hydrochloride] | ≤ 1 nM | 100 to 1000 nM | –
4 | COCCOc1cc2c(-c3ccc(CNC(=O)c4noc(C(C)(C)C)n4)c(C)c3)ncnn2c1 [Example 58, 5-(tert-butyl)-N-(4-(6-(2-methoxyethoxy)pyrrolo[2,1-f][1,2,4]triazin-4-yl)-2-methylbenzyl)-1,2,4-oxadiazole-3-carboxamide] | ≤ 1 nM | < 100 nM | –
5 | Cc1cc(-c2ncnn3cc(N4CCO[C@H](C)C4)cc23)ccc1CNC(=O)c1noc(C(C)(C)C)n1 (single isomer, unassigned) [Example 30] | ≤ 1 nM | 100 to 1000 nM | –
6 | Cc1cc(-c2ncnn3cc(-c4cnn(C)c4)cc23)ccc1CNC(=O)c1noc(C2(C)CC2)n1 [Example 40, N-(2-methyl-4-(6-(1-methyl-1H-pyrazol-4-yl)pyrrolo[2,1-f][1,2,4]triazin-4-yl)benzyl)-5-(1-methylcyclopropyl)-1,2,4-oxadiazole-3-carboxamide] | ≤ 1 nM | 100 to 1000 nM | –
7 | Cc1c(CNC(=O)c2noc(C(C)(C)CF)n2)ccc(-c2ncnn3cc(-c4cnn(C)c4)cc23)c1F [Example 33, N-(3-fluoro-2-methyl-4-(6-(1-methyl-1H-pyrazol-4-yl)pyrrolo[2,1-f][1,2,4]triazin-4-yl)benzyl)-5-(1-fluoro-2-methylpropan-2-yl)-1,2,4-oxadiazole-3-carboxamide] | ≤ 1 nM | 100 to 1000 nM | –
8 | Cc1cc(-c2ncnn3cc(-c4cnn(C)c4)cc23)ccc1[C@@H](C)NC(=O)c1nc(C(C)(C)C)no1 [Example 57, (R)-3-(tert-butyl)-N-(1-(2-methyl-4-(6-(1-methyl-1H-pyrazol-4-yl)pyrrolo[2,1-f][1,2,4]triazin-4-yl)phenyl)ethyl)-1,2,4-oxadiazole-5-carboxamide] | ≤ 1 nM | 100 to 1000 nM | –
9 | CO[C@@H]1CCN(c2cc3c(-c4ccc(CNC(=O)c5nc(C(C)(C)C)no5)c(C)c4)ncnn3c2)C1 (single isomer, unassigned) [Example 24] | ≤ 1 nM | 100 to 1000 nM | –
10 | Cc1cc(-c2ncnn3cc(-c4ccn(C)n4)cc23)ccc1CNC(=O)c1noc(C(C)(C)C)n1 [Example 9, 5-(tert-butyl)-N-(2-methyl-4-(6-(1-methyl-1H-pyrazol-3-yl)pyrrolo[2,1-f][1,2,4]triazin-4-yl)benzyl)-1,2,4-oxadiazole-3-carboxamide trifluoroacetate] | ≤ 1 nM | 100 to 1000 nM | –
11 | Cc1cc(-c2ncnn3cc(N4CCN(C5COC5)CC4)cc23)ccc1CNC(=O)c1noc(C(C)(C)C)n1 [Example 32, 5-(tert-butyl)-N-(2-methyl-4-(6-(4-(oxetan-3-yl)piperazin-1-yl)pyrrolo[2,1-f][1,2,4]triazin-4-yl)benzyl)-1,2,4-oxadiazole-3-carboxamide trifluoroacetate] | ≤ 1 nM | 100 to 1000 nM | –
12 | COCCn1cc(-c2cc3c(-c4ccc(CNC(=O)c5noc(C(C)(C)C)n5)c(C)c4)ncnn3c2)cn1 [Example 7, 5-(tert-butyl)-N-(4-(6-(1-(2-methoxyethyl)-1H-pyrazol-4-yl)pyrrolo[2,1-f][1,2,4]triazin-4-yl)-2-methylbenzyl)-1,2,4-oxadiazole-3-carboxamide] | ≤ 1 nM | < 100 nM | –
13 | CC(C)(C)c1nc(C(=O)NCc2ccc(-c3ncnn4cc(N5CCOCC5)cc34)cc2Cl)no1 [Example 15, 5-(tert-butyl)-N-(2-chloro-4-(6-morpholinopyrrolo[2,1-f][1,2,4]triazin-4-yl)benzyl)-1,2,4-oxadiazole-3-carboxamide trifluoroacetate] | ≤ 1 nM | 100 to 1000 nM | –
14 | COc1c(CNC(=O)c2nc(C(C)(C)C)no2)ccc(-c2ncnn3cc(-c4cnn(C)c4)cc23)c1F [Example 45, 3-(tert-butyl)-N-(3-fluoro-2-methoxy-4-(6-(1-methyl-1H-pyrazol-4-yl)pyrrolo[2,1-f][1,2,4]triazin-4-yl)benzyl)-1,2,4-oxadiazole-5-carboxamide] | ≤ 1 nM | 100 to 1000 nM | –
15 | CC(C)(C)c1noc(C(=O)NCc2ccc(-c3ncnn4cc(N5CCOCC5)cc34)c(F)c2Cl)n1 [Example 14, 3-(tert-butyl)-N-(2-chloro-3-fluoro-4-(6-morpholinopyrrolo[2,1-f][1,2,4]triazin-4-yl)benzyl)-1,2,4-oxadiazole-5-carboxamide trifluoroacetate] | ≤ 1 nM | – | 100 to 1000 nM
